Data taken from patent US8946225B2, “Derivatives of 2H pyridazin-3-ones, their preparation and their use as SCD-1 inhibitors” (Pierre Fabre Medicament, priority 2009, dated 2015).

Tests used:
SCD-1 = molecular target: T1, SCD-1 (Homo sapiens, UniProt O00767); experiment: Human enzymatic activity of SCD-1 from microsomes of HepG2 cells (conversion of [14C] stearic acid to oleic acid, HPLC); format: biochemical; conditions: microsomal fraction of HepG2 cells, 62 μM stearic acid, 20 minutes at 37° C., vs vehicle 0.1% DMSO; read-out: HSCD-1 (HEPG2) IC50
T1 construct: addition of 125 μg of microsomal fraction of HepG2 cells; host or cells: HepG2 human hepatocarcinoma cells (microsomal fraction)
T1 sequence (O00767 1-359): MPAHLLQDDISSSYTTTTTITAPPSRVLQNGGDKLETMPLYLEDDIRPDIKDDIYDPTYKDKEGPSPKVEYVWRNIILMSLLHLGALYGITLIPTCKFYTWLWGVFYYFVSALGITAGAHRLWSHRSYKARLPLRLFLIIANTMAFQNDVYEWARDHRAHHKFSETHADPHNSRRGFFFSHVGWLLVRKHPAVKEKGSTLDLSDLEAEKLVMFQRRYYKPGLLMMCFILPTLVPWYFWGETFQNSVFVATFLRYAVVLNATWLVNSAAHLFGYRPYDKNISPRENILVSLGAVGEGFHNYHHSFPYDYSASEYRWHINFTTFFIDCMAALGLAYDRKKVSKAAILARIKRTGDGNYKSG
Protocol: In vitro: Human enzymatic activity of SCD-1 from microsomes of HepG2 cells after treatment with the inhibitor compounds (% inhibition).
HepG2 cells of human hepatocarcinoma (ATCC, HB-8065) are cultured at confluence then trypsinated. The cell residue is solubilized in 10 mM Tris buffer (pH 7.4) sucrose (250 mM) DTT (1 mM) then the cells are lysed by sonication. The microsomes are obtained after centrifuging at 10,000 g for 20 minutes at 4° C. followed by centifrugation of the supernatant at 100,000 g for 60 minutes at 4° C. The residue is solubilized in 10 mM Tris buffer (pH 7.4) sucrose (250 mM) at 4° C. and the microsomal proteins are assayed and stored at −196° C. (liquid nitrogen).
The enzymatic reaction measures the conversion of stearic acid (C18:0 fatty acid) into oleic acid (C18:1 fatty acid) by SCD-1. The enzymatic reaction is initiated by the addition of 125 μg of microsomal fraction of HepG2 cells to tubes (total reaction volume of 500 μl) containing 62 μM stearic acid (45 μM stearic acid and 17 μM [^14C] stearic acid) in 100 mM phosphate buffer (pH 7.16) with 7.2 mM ATP, 0.54 mM CoA, 6 mM MgCl2, 0.8 mM NADH and the inhibitor compound or vehicle (0.1% DMSO). The tubes are incubated for 20 minutes at 37° C. then the enzymatic reaction is halted by the addition of KOH (12%) and saponification for 30 minutes at 80° C. After acidification (3N HCl), the fatty acids are extracted twice with ethyl ether, evaporated under nitrogen before being solubilized in methanol/dichloromethane (3:1). The reaction product (C18:1) is separated from the reaction substrate (C18:0) by HPLC (Perkin Elmer, C18 reverse phase column) coupled with an in-line radioactivity detector (FlowOne). Enzymatic activity is measured in picomoles of stearic acid converted to oleic acid per minute and per mg of protein. For each inhibitor compound, an IC50 value is determined, compared with the reference enzymatic activity (vehicle 0.1% DMSO). Sterculic acid is the reference inhibitor compound (Gomez F. E., Bauman D. E., Ntambi J. M., Fox B. G. Effects of sterculic acid on stearoyl-CoA desaturase in differentiating […] adipocytes. Biochem Biophys Res Commun. 300 316-326 (2003).

IC50 (SCD-1)	melting point	Structure (SMILES)
100 to 1000 nM	108 °C	Cc1ccc(C)c(OC2CCN(C(=O)Nc3ccnn(C)c3=O)CC2)c1 [Example 55, 4-(2,5-dimethyl-phenoxy)-piperidine-1-carboxylic acid (2-methyl-3-oxo-2,3-dihydro-pyridazin-4-yl)-amide]
100 to 1000 nM	133 °C	Cc1ccc(Cl)c(OC2CCN(C(=O)Nc3ccnn(C)c3=O)CC2)c1 [Example 56, 4-(2-chloro-5-methyl-phenoxy)-piperidine-1-carboxylic acid (2-methyl-3-oxo-2,3-dihydro-pyridazin-4-yl)-amide]
10 to 100 nM	104 °C	Cc1ccc(C(C)C)cc1OC1CCN(C(=O)Nc2ccnn(C)c2=O)CC1 [Example 57, 4-(2-methyl-5-isopropyl-phenoxy)-pipéridine-1-carboxylic acid (2-methyl-3-oxo-2,3-dihydro-pyridazin-4-yl)-amide]
10 to 100 nM	101 °C	Cn1nccc(NC(=O)N2CCC(Oc3cccc(C(F)(F)F)c3)CC2)c1=O [Example 58, 4-(5-trifluoromethyl-phenoxy)-piperidine-1-carboxylic acid (2-methyl-3-oxo-2,3-dihydro-pyridazin-4-yl)-amide]
~1000 nM	124 °C	Cc1ccccc1OC1CCN(C(=O)Nc2ccnn(C)c2=O)CC1 [Example 59, 4-(2-methyl-phenoxy)-piperidine-1-carboxylic acid (2-methyl-3-oxo-2,3-dihydro-pyridazin-4-yl)-amide]
100 to 1000 nM	127 °C	Cn1nccc(NC(=O)N2CCC(Oc3ccc(F)c(C(F)(F)F)c3)CC2)c1=O [Example 60, 4-(4-fluoro-5-trifluoromethyl-phenoxy)-piperidine-1-carboxylic acid (2-methyl-3-oxo-2,3-dihydro-pyridazin-4-yl)-amide]
10 to 100 nM	145 °C	Cn1nccc(NC(=O)N2CCC(Oc3cc(F)ccc3C(F)(F)F)CC2)c1=O [Example 61, 4-(5-fluoro-2-trifluoromethyl-phenoxy)-piperidine-1-carboxylic acid (2-methyl-3-oxo-2,3-dihydro-pyridazin-4-yl)-amide]
30 nM	125 °C	Cn1nccc(NC(=O)N2CCC(Oc3cc(Cl)ccc3Cl)CC2)c1=O [Example 62, 4-(2,5-dichloro-phenoxy)-piperidine-1-carboxylic acid (2-methyl-3-oxo-2,3-dihydro-pyridazin-4-yl)-amide]
30 nM	124 °C	Cn1nccc(NC(=O)N2CCC(Oc3cc(Br)ccc3Cl)CC2)c1=O [Example 63, 4-(2-chloro-5-bromo-phenoxy)-piperidine-1-carboxylic acid (2-methyl-3-oxo-2,3-dihydro-pyridazin-4-yl)-amide]
300 to 1000 nM	124 °C	Cn1nccc(NC(=O)N2CCC(Oc3ccccc3Cl)CC2)c1=O [Example 64, 4-(2-chloro-phenoxy)-piperidine-1-carboxylic acid (2-methyl-3-oxo-2,3-dihydro-pyridazin-4-yl)-amide]
1000 nM	154 °C	Cn1nccc(NC(=O)N2CCC(Oc3ccc(Cl)c(Cl)c3)CC2)c1=O [Example 65, 4-(3,4-dichloro-phenoxy)-piperidine-1-carboxylic acid (2-methyl-3-oxo-2,3-dihydro-pyridazin-4-yl)-amide]
100 to 1000 nM	140 °C	Cn1nccc(NC(=O)N2CCC(Oc3ccc(Cl)cc3Cl)CC2)c1=O [Example 66, 4-(2,4-dichloro-phenoxy)-piperidine-1-carboxylic acid (2-methyl-3-oxo-2,3-dihydro-pyridazin-4-yl)-amide]
300 nM	115 °C	Cn1nccc(NC(=O)N2CCC(Oc3cc(F)cc(C(F)(F)F)c3)CC2)c1=O [Example 67, 4-(3-fluoro-5-trifluoromethyl-phenoxy)-piperidine-1-carboxylic acid (2-methyl-3-oxo-2,3-dihydro-pyridazin-4-yl)-amide]
100 to 1000 nM	142 °C	Cc1ccc(F)cc1OC1CCN(C(=O)Nc2ccnn(C)c2=O)CC1 [Example 68, 4-(5-fluoro-2-methyl-phenoxy)-piperidine-1-carboxylic acid (2-methyl-3-oxo-2,3-dihydro-pyridazin-4-yl)-amide]
100 to 1000 nM	138 °C	Cn1nccc(NC(=O)N2CCC(Oc3cc(F)ccc3F)CC2)c1=O [Example 69, 4-(2,5-difluoro-phenoxy)-piperidine-1-carboxylic acid (2-methyl-3-oxo-2,3-dihydro-pyridazin-4-yl)-amide]
100 to 1000 nM	154 °C	Cn1nccc(NC(=O)N2CCC(Oc3cc(Cl)c(Cl)cc3Cl)CC2)c1=O [Example 70, 4-(2,4,5-trichloro-phenoxy)-piperidine-1-carboxylic acid (2-methyl-3-oxo-2,3-dihydro-pyridazin-4-yl)-amide]
10 to 100 nM	143 °C	Cn1nccc(NC(=O)N2CCC(Oc3cc(F)c(F)cc3Br)CC2)c1=O [Example 71, 4-(2-bromo-4,5-difluoro-phenoxy)-piperidine-1-carboxylic acid (2-methyl-3-oxo-2,3-dihydro-pyridazin-4-yl)-amide]
10 nM	158 °C	O=C(Nc1ccn[nH]c1=O)N1CCC(Oc2cc(C(F)(F)F)ccc2Cl)CC1 [Example 72, 4-(2-Chloro-5-trifluoromethyl-phenoxy)-piperidine-1-carboxylic acid (3-oxo-2,3-dihydro-pyridazin-4-yl)-amide]
10 to 100 nM	136 °C	Cn1ncc(NC(=O)N2CCC(Oc3cc(C(F)(F)F)ccc3Cl)CC2)cc1=O [Example 73, 4-(2-Chloro-5-trifluoromethyl-phenoxy)-piperidine-1-carboxylic acid (1-methyl-6-oxo-1,6-dihydro-pyridazin-4-yl)-amide]
10 to 100 nM	155 °C	Cn1nc(NC(=O)N2CCC(Oc3cc(C(F)(F)F)ccc3Cl)CC2)ccc1=O [Example 74, 4-(2-Chloro-5-trifluoromethyl-phenoxy)-piperidine-1-carboxylic acid (1-methyl-6-oxo-1,6-dihydro-pyridazin-3-yl)-amide]
